{
  "source": "patent US10888511B2",
  "about": "“Methods and articles of manufacture for the treatment of skin” (Advanced Collagen Science LLC, priority 2013, dated 2021)",
  "key": {"Human Skin [1]": {"test_system": "Human Skin", "test": "Acetylation of human skin using glutaric anhydride in pH adjusted vegetable oil without dermabrasion", "format": "in vivo", "conditions": "30 mg/mL dispersed in vegetable oil adjusted to pH 9.0, 1 minute, one treatment, no dermabrasion", "protocol": "(§1) In this example, glutaric anhydride was applied to temporal defects adjacent to periorbital areas. Skin defects were pretreated by application of 0.1M disodium phosphate solution, pH 8.3 for 30 seconds using surgical gauze. Glutaric anhydride powder (30 mg/mL) was dispersed in vegetable oil adjusted to a pH of 9.0 using 10N NaOH and gently applied to the wet defects for 1 minute using surgical gauze. The treatment sites were then rinsed with 0.1M phosphate buffered saline, pH 7.2. Only one treatment was made to temporal skin sites."}, "Human Skin [2]": {"test_system": "Human Skin", "test": "Acetylation of human skin using glutaric anhydride in alkaline EDTA solution following pretreatment with alkaline EDTA solution", "format": "in vivo", "conditions": "powder on gauze flushed with 0.035M disodium EDTA pH 9.0, upper cheek", "from_the_text": "In this example, glutaric anhydride was applied to the cheek. An area of the upper cheek, below the eye, was pretreated with pH adjusted 0.035M disodium EDTA (pH 9.0) applied using a gauze pad. Glutaric anhydride powder was finely ground using a mortar and pestle and rubbed into a second gauze pad. The gauze was placed on the treatment area and flushed with pH adjusted 0.035M disodium EDTA (pH 9.0) to deliver the glutaric anhydride to the treatment site as it dissolved in the EDTA solution. […] Two such applications were performed."}, "Human Skin [3]": {"test_system": "Human Skin", "test": "Acetylation of human skin using alcohol penetration enhancer", "format": "in vivo", "conditions": "50 mg/mL in ethanol, 1 minute, no dermabrasion, up to 5 treatments", "protocol": "(§2) In this example, glutaric anhydride was applied to temporal defects adjacent to periorbital areas. Skin defects were pretreated by application of 0.1M disodium phosphate solution, pH 8.3 for 30 seconds using surgical gauze. Glutaric anhydride (50 mg/mL) was dissolved in ethanol and applied to the defects for 1 minute using surgical gauze. Treatment sites were then rinsed with 0.1M phosphate buffered saline, pH 7.2. Up to 5 treatments were made to specific skin sites"}, "Human Skin [4]": {"test_system": "Human Skin", "test": "Acetylation of human skin without dermabrasion, micro-needle roll or penetration enhancers", "format": "in vivo", "conditions": "20 mg/mL in 0.3M disodium phosphate pH 8.9, 30 seconds to 1 minute, no dermabrasion", "protocol": "In this example, the pre-treatment buffer, 0.1M disodium phosphate solution, pH 8.3, was applied for 30 seconds using surgical gauze. Glutaric anhydride (20 mg/mL) was mixed in 0.3M disodium phosphate solution at pH 8.9 and immediately (less than 5 seconds after dissolution) applied to the defects for 30 seconds to 1 minute using surgical gauze. Treatment sites were then rinsed with 0.1M phosphate buffered saline, pH 7.2. No effect on skin thickness or appearance was noted."}, "Human Skin [5]": {"test_system": "Human Skin", "test": "Acetylation of human skin following dermabrasion (aqueous buffer)", "format": "in vivo", "conditions": "20 mg/mL in 0.3M disodium phosphate pH 8.9, after gentle dermabrasion, temporal defects", "protocol": "In this example, glutaric anhydride was applied to temporal defects adjacent to periorbital areas. Skin defects were first subject to gentle dermabrasion followed by application of 0.1M disodium phosphate solution, pH 8.3 for 30 seconds using surgical gauze. Glutaric anhydride (20 mg/mL) was mixed in 0.3M disodium phosphate solution at pH 8.9 and immediately (less than 5 seconds after dissolution) applied to the defects for 30 seconds to 1 minute using surgical gauze. Treatment sites were then rinsed with 0.1M phosphate buffered saline, pH 7.2. Pre-treatment and post-treatment photos were taken and the results evaluated."}, "Human Skin [6]": {"test_system": "Human Skin", "test": "Acetylation of human skin using glutaric anhydride in alkaline buffer solution following micro-needle roller treatment", "format": "in vivo", "conditions": "40 mg/mL in 0.3M disodium phosphate pH 9.1, forearm", "protocol": "In this example, glutaric anhydride was applied to the forearm. A skin area approximately 4 mm×4 mm was punctured using a micro-needle roller, followed by pretreated with 0.1M sodium phosphate buffer, pH 8.3 for 30 seconds using cotton swab. Glutaric anhydride powder (40 mg/mL) was dissolved in 0.3M disodium phosphate solution, pH 9.1 and gently applied to the pre-treated skin area for 1 minute using a cotton swab. The sites were final rinsed using an alcohol swab."}, "Human Skin (Temple Area)": {"test_system": "Human Skin (Temple Area)", "test": "Acetylation of human skin (temple area) following dermabrasion, in ethanol", "format": "in vivo", "conditions": "50 mg/mL in ethanol, approximately 0.25 mL aliquots, 1 minute, after dermabrasion, up to 5 treatments", "protocol": "as §2, with “first subject to gentle dermabrasion followed” for “pretreated”, “ethanol. Aliquots of approximately 0.25 mL were” for “ethanol and”"}, "Processed Human Dermis": {"test_system": "Processed Human Dermis", "test": "Acetylation of processed human skin (epithelium removed): mechanical properties", "conditions": "100 mg/mL in dilute alkaline buffer pH 8.5, 1-minute treatment, vs specimen treated with buffer alone", "protocol": "Processed human skin was obtained for treatment. The processed skin was comprised of lyophilized dermis. Two samples were tested, two 2 cm×4 cm specimens. One of specimens was treated with 100 mg/mL of glutaric anhydride. The second specimen was treated with buffer solution alone. The rejuvenation agent was prepared in dilute alkaline buffer solution, pH 8.5, quickly dissolved and applied to the dermis within 15 seconds. Prior to treatment with the active agent, skin specimens were pre-treated with buffer alone. Treatments were completed in 1-minute."}, "Human Skin [7]": {"test_system": "Human Skin", "test": "Acetylation of human skin using glutaric anhydride powder without dermabrasion", "format": "in vivo", "conditions": "powder (10 mg/mL) applied to wet defects, 1 minute, no dermabrasion, up to 5 treatments", "protocol": "In this example, glutaric anhydride was applied to temporal defects adjacent to periorbital areas. Skin defects were pretreated by application of 0.1M disodium phosphate solution, pH 8.3 for 30 seconds using surgical gauze. Glutaric anhydride powder (10 mg/mL) was gently applied to the wet defects for 1 minute, or until the powder dissolved, using surgical gauze. The powder Treatment sites were then rinsed with 0.1M phosphate buffered saline, pH 7.2. Up to 5 treatments were made to specific skin sites"}, "[8]": {"test_system": "Human Skin (Hand and Temple)", "test": "Acetylation of human skin (hand and temple) following dermabrasion, in ethanol or anhydrous alcohol", "format": "in vivo", "conditions": "50 mg/mL in ethanol or anhydrous alcohol, 1 minute, after dermabrasion, up to 5 treatments", "protocol": "as §2, with “were first subject to gentle dermabrasion followed” for “were pretreated”, “ethanol or anhydrous alcohol” for “ethanol”, “skin sites.” for “skin sites”"}, "Human Skin [9]": {"test_system": "Human Skin", "test": "Acetylation of human skin using glutaric anhydride in vegetable oil without dermabrasion", "format": "in vivo", "conditions": "30 mg/mL dispersed in vegetable oil, 1 minute, one treatment, no dermabrasion", "protocol": "as §1, with “oil” for “oil adjusted to a pH of 9.0 using 10N NaOH”"}, "Human Skin [10]": {"test_system": "Human Skin", "test": "Acetylation of human skin using glutaric anhydride in pH adjusted vegetable oil following micro-needle roller treatment", "format": "in vivo", "conditions": "40 mg/mL in vegetable oil adjusted to pH 9.1, forearm, 1 minute", "protocol": "In this example, glutaric anhydride was applied to the forearm. A skin area approximately 4 mm×4 mm was punctured using a micro-needle roller, followed by pretreated with 0.1M disodium phosphate solution, pH 8.3 for 30 seconds using cotton swab. Glutaric anhydride powder (40 mg/mL) was dispersed in vegetable oil that was adjusted to a pH of 9.1 using granules of sodium hydroxide powder and gently applied to the pre-treated skin area for 1 minute using a cotton swab. The sites were rinsed using an alcohol swab."}, "[11]": {"conditions": "after micro-needle roller, 1 minute"}},
  "data": [
    {"molecule": "O=C1CCCC(=O)O1", "note": "[glutaric anhydride]", "values": [
      {"measurement": "Feel of application sites", "setting": "Human Skin [1]", "value": "thicker and softer"},
      {"measurement": "Sensation at treated sites immediately after treatment and for sometime after", "setting": "Human Skin [1]", "value": "mild tingly feeling"},
      {"measurement": "Skin smoothness (visual)", "setting": "Human Skin [1]", "value": "visual improvement"},
      {"measurement": "Skin thickness at the treatment sites (tactile)", "setting": "Human Skin [1]", "value": "tactile increase"},
      {"measurement": "Sensation as the glutaric anhydride penetrated the skin", "setting": "Human Skin [2]", "value": "slight burning or tingly sensation"},
      {"measurement": "Redness at the treatment site", "setting": "Human Skin [2]; after gauze removed and site flushed", "value": "Some redness"},
      {"measurement": "Persistence of skin thickening", "setting": "Human Skin [2]; after the second application", "value": "more than 2 weeks"},
      {"measurement": "Skin thickening at the treatment site", "setting": "Human Skin [2]; after the second application", "value": "obvious minor skin thickening"},
      {"measurement": "Skin smoothness (visual)", "setting": "Human Skin [3]", "value": "minor visual improvement"},
      {"measurement": "Skin thickness at the treatment sites (tactile)", "setting": "Human Skin [3]", "value": "tactile increase"},
      {"measurement": "Effect on skin thickness or appearance", "setting": "Human Skin [4]", "value": "No effect"},
      {"measurement": "Appearance of skin defects", "setting": "Human Skin [5]", "value": "improvement"},
      {"measurement": "Sensation at treated sites immediately after treatment", "setting": "Human Skin [6]; 1 minute", "value": "mild tingly feeling"},
      {"measurement": "Color of treated sites", "setting": "Human Skin [6]; [11]", "value": "slightly red"},
      {"measurement": "Feel of application site", "setting": "Human Skin [6]; [11]", "value": "felt slightly thicker immediately after treatment only"},
      {"measurement": "Effect of repeated treatments on skin appearance", "setting": "Human Skin [6]; after micro-needle roller, repeated treatments", "value": "appeared to enhance beneficial results"},
      {"measurement": "Skin smoothness (visual)", "setting": "Human Skin (Temple Area)", "value": "visual improvement"},
      {"measurement": "Skin thickness at the treatment sites (tactile)", "setting": "Human Skin (Temple Area)", "value": "tactile increase"},
      {"measurement": "Durometer, Change (increase)", "setting": "Processed Human Dermis", "value": 5.3, "unit": "% increase"},
      {"measurement": "Low Chord Modulus, Change (decrease)", "setting": "Processed Human Dermis", "value": 50.5, "unit": "% decrease"},
      {"measurement": "Thickness, Change (increase)", "setting": "Processed Human Dermis", "value": 18.3, "unit": "% increase"},
      {"measurement": "Water Retention, Change (increase)", "setting": "Processed Human Dermis", "value": 66.8, "unit": "% increase"},
      {"measurement": "Skin smoothness (visual)", "setting": "Human Skin [7]", "value": "No visual improvement"},
      {"measurement": "Tactile increase in skin at the treatment sites", "setting": "Human Skin [7]", "value": "a tactile increase in skin as observed"},
      {"measurement": "Skin appearance (visual)", "setting": "[8]", "value": "visual improvement"},
      {"measurement": "Skin thickness at the treatment sites (tactile)", "setting": "[8]", "value": "tactile increase"},
      {"measurement": "Feel of application sites", "setting": "Human Skin [9]", "value": "thicker and softer"},
      {"measurement": "Sensation at treated sites immediately after treatment and for sometime after", "setting": "Human Skin [9]", "value": "mild tingly feeling"},
      {"measurement": "Skin smoothness (visual)", "setting": "Human Skin [9]", "value": "minor visual improvement"},
      {"measurement": "Skin thickness at the treatment sites (tactile)", "setting": "Human Skin [9]", "value": "tactile increase"},
      {"measurement": "Sensation at treated sites immediately after treatment and for sometime after", "setting": "Human Skin [10]", "value": "mild tingly feeling"},
      {"measurement": "Color of treated sites", "setting": "Human Skin [10]; after micro-needle roller", "value": "slightly red"},
      {"measurement": "Feel of application site", "setting": "Human Skin [10]; after micro-needle roller", "value": "felt thicker immediately after treatment and for several days later"},
      {"measurement": "Skin thickness at the treatment sites (tactile)", "setting": "Human Skin [10]; after micro-needle roller", "value": "tactile increase"}
    ]}
  ]
}
